Measurements from article PMC10893631, “Receptor-based pharmacophore modeling, molecular docking, synthesis and biological evaluation of novel VEGFR-2, FGFR-1, and BRAF multi-kinase inhibitors” (BMC Chemistry, 2024).

Experiments:
K-562 = test: NCI SRB growth inhibition (single dose 10 µM / five-dose); assay type: cell-based, human; details: Homo sapiens, K562; for inhibition at 10 µM: K-562 (Leukemia), read-out: GI%
Procedure: (§1) Screening of cytotoxic activity against a panel of sixty human tumor cell lines The selected compounds by NCI were evaluated for their anticancer activity in a two- stage process. […] Then, the output from the single dose screen is reported as a mean graph. […] Assay protocol. […] For a typical screening experiment, cells are inoculated into 96 well microtiter plates in 100 µL at plating densities ranging from 5000 to 40,000 cells/well depending on the doubling time of individual cell lines. […] After 24 h, two plates of each cell line are fixed in situ with TCA, to represent a measurement of the cell population for each cell line at the time of drug addition (Tz). The experimental drugs are solubilized in dimethyl sulfoxide at 400-fold the desired final maximum test concentration and stored frozen prior to use. At the time of drug addition, an aliquot of frozen concentrate is thawed and diluted to twice the desired final maximum test concentration with complete medium containing 50 µg/mL gentamicin. Additional four, 10-fold or ½ log serial dilutions are made to provide a total of five drug concentrations plus control. Aliquots of 100 mL of these different drug dilutions are added to the appropriate microtiter wells already containing […] of medium, resulting in the required final drug concentrations. […] For adherent cells, the assay is terminated by the addition of cold TCA. […] The supernatant is discarded, and the plates are washed five times with tap water and air dried. Sulforhodamine B (SRB) solution ([…]) at 0.4% (w/v) in 1% acetic acid is added to each well, and plates are incubated for 10 min at room temperature. After staining, unbound dye is removed by washing five times with 1% acetic acid and the plates are air dried. […] Using the seven absorbance measurements [time zero, (Tz), control growth, (C), and test growth in the presence of drug at the five concentration levels (Ti)], the percentage growth is calculated at each of the drug concentrations levels. Percentage growth inhibition is calculated as: [(Ti Tz)/(C–Tz)] x 100 for concentrations for which Ti>/=Tz and [(Ti-Tz)/Tz] x 100 for concentrations for which Ti < Tz. Three dose response parameters are calculated for each experimental agent. […] The drug concentration resulting in total growth inhibition (TGI) is calculated from Ti = Tz. […] Values are calculated for each of these three parameters if the level of activity is reached; however, if the effect is not reached or is exceeded, the value for that parameter is expressed as greater or less than the maximum or minimum concentration tested.

RPMI-8226 = test: as above; assay type: cell-based, human; details: Homo sapiens; for inhibition at 10 µM: RPMI-8226 (Leukemia), read-out: GI%
Procedure: as §1

SNB-75 = test: as above; assay type: cell-based, human; details: Homo sapiens; SNB-75 (CNS cancer), 10 µM; read-out: GI%
Procedure: as §1

LOX IMVI = test: as above; assay type: cell-based, human; details: Homo sapiens; for inhibition at 10 µM: LOX IMVI (Melanoma), read-out: GI%
Procedure: as §1

SF-539 = test: as above; assay type: cell-based, human; details: Homo sapiens; for inhibition at 10 µM: SF-539 (CNS cancer), read-out: GI%
Procedure: as §1

HCT-116 = test: as above; assay type: cell-based, human; details: Homo sapiens, HCT-116; for inhibition at 10 µM: read-out: GI%
Procedure: as §1

A498 = test: as above; assay type: cell-based, human; details: Homo sapiens; for inhibition at 10 µM: A498 (Renal cancer), read-out: GI%
Procedure: as §1

SW-620 = test: as above; assay type: cell-based, human; details: Homo sapiens; for inhibition at 10 µM: SW-620 (Colon cancer), read-out: GI%
Procedure: as §1

MCF7 = test: as above; assay type: cell-based, human; details: Homo sapiens; for inhibition at 10 µM: MCF7 (Breast cancer), read-out: GI%
Procedure: as §1

DU-145 = test: as above; assay type: cell-based, human; details: Homo sapiens; for inhibition at 10 µM: DU-145 (Prostate cancer), read-out: GI%
Procedure: as §1

SNB-19 = test: as above; assay type: cell-based, human; details: Homo sapiens; for inhibition at 10 µM: SNB-19 (CNS cancer), read-out: GI%
Procedure: as §1

MDA-MB-468 = test: as above; assay type: cell-based, human; details: Homo sapiens; for inhibition at 10 µM: MDA-MB-468 (Breast cancer), read-out: GI%
Procedure: as §1

VEGFR-2 = molecular target: T1, VEGFR-2 (Homo sapiens, UniProt P35968); test: VEGFR-2 kinase assay kit (BPS), Kinase-Glo Max luminescence; assay type: biochemical; details: VEGFR-2, single dose 10 µM, duplicate, mean ± SD
T1 construct: purchased BPS Biosciences 40325
T1 sequence (P35968 20-1356): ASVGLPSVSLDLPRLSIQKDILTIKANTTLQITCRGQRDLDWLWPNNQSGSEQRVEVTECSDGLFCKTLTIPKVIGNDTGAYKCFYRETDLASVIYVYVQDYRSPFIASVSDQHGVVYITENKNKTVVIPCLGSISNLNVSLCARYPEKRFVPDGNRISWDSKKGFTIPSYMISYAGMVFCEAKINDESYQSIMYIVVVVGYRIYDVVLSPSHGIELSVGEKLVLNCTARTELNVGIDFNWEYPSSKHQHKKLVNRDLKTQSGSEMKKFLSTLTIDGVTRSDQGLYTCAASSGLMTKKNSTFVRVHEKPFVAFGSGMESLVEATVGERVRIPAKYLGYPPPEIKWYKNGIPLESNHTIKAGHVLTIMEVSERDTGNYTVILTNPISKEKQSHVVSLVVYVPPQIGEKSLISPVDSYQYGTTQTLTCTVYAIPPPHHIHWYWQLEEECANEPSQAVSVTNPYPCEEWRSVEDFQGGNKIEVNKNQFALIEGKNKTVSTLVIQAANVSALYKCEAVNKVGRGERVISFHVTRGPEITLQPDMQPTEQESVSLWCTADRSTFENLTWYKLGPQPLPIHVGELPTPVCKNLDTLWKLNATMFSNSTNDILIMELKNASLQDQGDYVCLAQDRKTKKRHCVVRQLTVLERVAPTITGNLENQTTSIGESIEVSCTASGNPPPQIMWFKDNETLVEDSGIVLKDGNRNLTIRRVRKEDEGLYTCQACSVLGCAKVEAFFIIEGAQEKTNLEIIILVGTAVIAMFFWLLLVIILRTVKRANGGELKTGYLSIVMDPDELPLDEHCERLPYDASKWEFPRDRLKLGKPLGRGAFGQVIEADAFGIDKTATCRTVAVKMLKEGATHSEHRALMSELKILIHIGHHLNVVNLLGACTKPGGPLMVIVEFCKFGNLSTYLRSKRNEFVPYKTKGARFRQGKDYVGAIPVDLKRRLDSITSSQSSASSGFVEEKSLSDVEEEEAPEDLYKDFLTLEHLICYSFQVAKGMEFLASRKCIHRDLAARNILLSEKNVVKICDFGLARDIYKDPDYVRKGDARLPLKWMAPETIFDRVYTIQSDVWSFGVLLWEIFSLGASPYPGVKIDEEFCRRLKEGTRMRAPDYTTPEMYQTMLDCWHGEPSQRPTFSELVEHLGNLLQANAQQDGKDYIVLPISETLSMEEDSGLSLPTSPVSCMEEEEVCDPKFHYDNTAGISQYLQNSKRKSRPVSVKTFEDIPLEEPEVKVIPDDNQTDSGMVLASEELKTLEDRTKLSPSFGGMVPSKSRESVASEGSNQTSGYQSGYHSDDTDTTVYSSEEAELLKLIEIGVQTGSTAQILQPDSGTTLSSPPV
Procedure: 2. Biochemical kinase assay procedure
The inhibitory activity against different kinases was determined using kinase kits […]
from BPS Biosciences and kinase-Glo Max luminescence kinase assay kit (Promega).
The assay was carried out according to the protocol provided by the manufacturer. A stock solution of the synthesized derivatives in 100% DMSO was prepared. Subsequently, the compounds were diluted to 10% DMSO.
A master mixture was prepared according to the number of wells. For VEGFR-2 and FGFR-1 biochemical assays each well include 6 μl of 5x Kinase Buffer 1 + 1 μl of 500 μM ATP + 1 μl of PTK Substrate (Poly-Glu,Tyr 4:1) (10 mg/ml) + 17 μl of distilled water. For BRAF assay each well include 6 μl of 5x Kinase Buffer 1 + 1 μl of ATP (500 μM) + 10 μl of 5X Raf substrate + 8 μl of distilled water. 1x Kinase buffer 1 was prepared by mixing 600 μl of 5x Kinase Buffer 1 with 2400 μl water to give 3 mL. Kinases were thawed on ice and were diluted with 1x Kinase Buffer 1.
To start the biochemical reaction, 25 µL of the master mixture was added to each well in 96 well plate. 5 µL of 10% DMSO was added to positive control wells and blank wells. 5 µL of diluted inhibitor was added to each well labelled with the test inhibitor so that the final concentration of DMSO is 1% in all reactions. Then 20 µL of (1 ng / μl) in case of VEGFR-2 and FGFR-1 or (2.5 ng/μl) in case of BRAF in 1x kinase buffer was added to positive control wells and wells labelled with the inhibitor, while 20 µL 1x kinase buffer 1 was added to the […]
The plate was incubated at 30 °C for 45 min. Subsequently, 50 μl of Kinase-Glo Max luminescence reagent was added to each well and the plate was covered with aluminum foil and incubated at room temperature 15 min. Finally, the luminescence was recorded using multimode microplate reader. Kinase activity assays were performed in duplicate at each […]
The luminescence data were analyzed as follows. The difference between luminescence intensities in the absence of kinase (Lut) and in the presence of kinase (Luc) was defined as 100 % activity (Lut – Luc). Using luminescence signal (Lu) in the presence of the compound, % activity was calculated as: % activity = {(Lut - Lu)/(Lut - Luc)}×100%. The […]
concentration of the test compounds required to reduce the kinase activity by 50% was determined from dose-response curves and recorded as their IC50. […]

SMILES | inhibition at 10 µM (K-562) [%] | inhibition at 10 µM (RPMI-8226) [%] | inhibition at 10 µM (SNB-75) [%] | inhibition at 10 µM (LOX IMVI) [%] | inhibition at 10 µM (SF-539) [%] | inhibition at 10 µM (HCT-116) [%] | inhibition at 10 µM (A498) [%] | inhibition at 10 µM (SW-620) [%] | inhibition at 10 µM (MCF7) [%] | inhibition at 10 µM (DU-145) [%] | inhibition at 10 µM (SNB-19) [%] | inhibition at 10 µM (MDA-MB-468) [%] | inhibition at 10 µM (VEGFR-2) [%] | further results
O=C(NN=Cc1cccc(O)c1)c1ccc2[nH]c(-c3ccccc3)nc2c1 [8b, N'-(3-Hydroxybenzylidene)-2-phenyl-1H-benzo[d]imidazole-5-carbohydrazide] | 21.4 | 9.59 | 6.56 | 7.43 | 13.7 | < 5 | < 5 | < 5 | 43.1 | < 5 | < 5 | 18.9 | 23.8 ± 1.47 | 
COc1cccc(C=NNC(=O)c2ccc3[nH]c(-c4ccccc4)nc3c2)c1 [8c, N'-(3-Methoxybenzylidene)-2-phenyl-1H-benzo[d]imidazole-5-carbohydrazide] | 41.7 | 81.6 | 11 | < 5 | 28.6 | 12.7 | < 5 | < 5 | 51 | 18.4 | < 5 | 22.7 | 18.5 ± 0.95 | 
COc1cccc(C=NNC(=O)c2ccc3[nH]c(-c4ccccc4)nc3c2)c1O [8d, N'-(2-hydroxy-3-methoxybenzylidene)-2-phenyl-1H-benzo[d]imidazole-5-carbohydrazide] | 60.9 | 98.5 | 99.2 | 92.9 | > 100 | 97.4 | < 5 | 70.8 | 98.1 | 79.7 | 90.4 | > 100 | 53.8 ± 2.62 | GI50 (K-562; K-562, Leukemia, five-dose): 2040 nM; GI50 (RPMI-8226; RPMI-8226, Leukemia, five-dose): 1860 nM; GI50 (LOX IMVI; LOX IMVI, Melanoma, five-dose): 1340 nM; GI50 (SF-539; SF-539, CNS cancer, five-dose): 1310 nM; GI50 (HCT-116): 1840 nM; GI50 (A498; A498, Renal cancer, five-dose): 36600 nM; GI50 (SW-620; SW-620, Colon cancer, five-dose): 3770 nM; GI50 (MCF7; MCF7, Breast cancer, five-dose): 1060 nM; GI50 (DU-145; DU-145, Prostate cancer, five-dose): 3050 nM; GI50 (SNB-19; SNB-19, CNS cancer, five-dose): 2410 nM; GI50 (MDA-MB-468; MDA-MB-468, Breast cancer, five-dose): 890 nM
COc1ccc(C=NNC(=O)c2ccc3[nH]c(-c4ccccc4)nc3c2)cc1O [8e, N'-(3-Hydroxy-4-methoxybenzylidene)-2-phenyl-1H-benzo[d]imidazole-5-carbohydrazide] | 26.2 | 23.4 | < 5 | < 5 | 32.2 | 15 | < 5 | < 5 | 70.5 | < 5 | < 5 | 7.65 | 36.4 ± 1.91 | 
COc1ccc(OC)c(C=NNC(=O)c2ccc3[nH]c(-c4ccccc4)nc3c2)c1 [8f, N'-(2,5-Dimethoxybenzylidene)-2-phenyl-1H-benzo[d]imidazole-5-carbohydrazide] | 63 | 81.3 | < 5 | 62.5 | 36.9 | 52.5 | < 5 | 30.3 | 54.1 | 18.4 | 21.4 | 24.7 | 58.3 ± 2.98 | 
COc1cc(C=NNC(=O)c2ccc3[nH]c(-c4ccccc4)nc3c2)cc(OC)c1OC [8g, 2-Phenyl-N'-(3,4,5-trimethoxybenzylidene)-1H-benzo[d]imidazole-5-carbohydrazide] | 30.4 | 86.9 | < 5 | 56.5 | 49.8 | 41.6 | < 5 | 37.9 | 86 | 17.1 | 25.2 | 39.2 | 47.9 ± 3.53 | 
O=C(NN=Cc1cccc(O)c1)c1ccc2[nH]c(-c3ccc(Cl)cc3)nc2c1 [8p, 2-(4-Chlorophenyl)-N'-(3-hydroxybenzylidene)-1H-benzo[d]imidazole-5-carbohydrazide] | 49.9 | 56.7 | 7.89 | 14.7 | 32.4 | 37.7 | 10.2 | 6.31 | 72.3 | < 5 |  | 65.8 | 22.3 ± 0.86 | 
